The values that follow come from BindingDB's records for doi:10.1111/cbdd.12539 (Jagiellonian University Medical College, 2015).

Assay [1] has as its target T1, 5-hydroxytryptamine receptor 1A (Homo sapiens, UniProt P08908).
T1 sequence (P08908 whole entry): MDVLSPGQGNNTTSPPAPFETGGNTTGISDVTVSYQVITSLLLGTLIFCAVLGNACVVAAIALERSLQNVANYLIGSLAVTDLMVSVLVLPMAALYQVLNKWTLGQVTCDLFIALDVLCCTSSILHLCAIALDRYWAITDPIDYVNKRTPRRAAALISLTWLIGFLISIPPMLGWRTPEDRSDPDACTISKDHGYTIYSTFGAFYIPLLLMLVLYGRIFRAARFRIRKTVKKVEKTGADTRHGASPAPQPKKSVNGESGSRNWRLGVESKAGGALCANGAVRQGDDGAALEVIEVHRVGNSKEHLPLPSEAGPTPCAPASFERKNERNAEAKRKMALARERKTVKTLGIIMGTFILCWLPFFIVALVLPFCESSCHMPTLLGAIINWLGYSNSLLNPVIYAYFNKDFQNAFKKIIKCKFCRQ
Nature of the assay: Radioligand Binding Assay. The note with it: 25 °C. The protocol:
All assays were incubated in a total volume of […] in 96-well microtiter plates for 1 h at 37 °C, except for 5-HT1ARs which were incubated at room temperature for 1 h. The process of equilibration was terminated by rapidfiltration through Unifilter plates with a 96-well cell harvester and radioactivity retained on the filters was quantified on a Microbeta plate reader.

Assay [2] addresses 5-hydroxytryptamine receptor 7 (Homo sapiens, UniProt P34969). Description: Radioligand Binding Assay. The note with it: 25 °C.

Chain of 5-hydroxytryptamine receptor 7 (P34969 whole entry): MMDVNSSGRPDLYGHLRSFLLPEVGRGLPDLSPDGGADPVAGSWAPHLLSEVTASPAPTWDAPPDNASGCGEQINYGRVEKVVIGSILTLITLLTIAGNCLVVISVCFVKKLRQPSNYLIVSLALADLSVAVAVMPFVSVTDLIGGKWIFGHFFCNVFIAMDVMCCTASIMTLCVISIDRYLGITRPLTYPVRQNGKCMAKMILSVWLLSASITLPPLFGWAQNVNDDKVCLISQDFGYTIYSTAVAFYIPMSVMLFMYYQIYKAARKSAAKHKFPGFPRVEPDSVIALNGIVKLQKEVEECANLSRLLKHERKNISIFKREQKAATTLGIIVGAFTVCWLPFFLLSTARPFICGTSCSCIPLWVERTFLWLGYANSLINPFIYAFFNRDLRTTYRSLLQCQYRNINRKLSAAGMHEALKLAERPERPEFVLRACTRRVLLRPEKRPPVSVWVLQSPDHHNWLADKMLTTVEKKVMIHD

The term Ki denotes a dissociation constant, usually derived from enzyme kinetics or from competition with a known ligand. Take `O=C1NN=C(c2ccccc2Cl)NC1CCCCN1CCN(c2ccccc2F)CC1` (stereo not given) [3-(2-Chlorophenyl)-5-{4-[4-(2-fluorophenyl)piperazin-1-yl]butyl}-4,5-dihydro-1,2,4-triazin-6(1H)-one (17)]: the Ki in assay [1] is 37 nM; in assay [2], 91 nM.

Take `O=C1NN=C(C2CCCCC2)NC1CCCCN1CCN(c2cccc(Cl)c2Cl)CC1` (stereo not given) [3-Cyclohexyl-5-{4-[4-(2,3-dichlorophenyl)piperazin-1-yl]butyl}-4,5-dihydro-1,2,4-triazin-6(1H)-one (20)]: the figures for the Ki in assay [1] and in assay [2] were 32 nM and 5 nM, respectively.

Turning to `CSc1ccccc1N1CCN(CCCCC2NC(C3CCCCC3)=NNC2=O)CC1` (stereo not given) [3-Cyclohexyl-5-{4-[4-(2-(methylthio)phenyl)piperazin-1-yl]butyl}-4,5-dihydro-1,2,4-triazin-6(1H)-one (19)], the figures for the Ki in assay [1] and in assay [2] were 14 nM and 6 nM, respectively.

With `COc1ccccc1N1CCN(CCCCC2NC(C3CCCCC3)=NNC2=O)CC1` (stereo not given) [3-Cyclohexyl-5-{4-[4-(2-methoxyphenyl)piperazin-1-yl]butyl}-4,5-dihydro-1,2,4-triazin-6(1H)-one (18)], the Ki turned out to be 5 nM in assay [1] and 20 nM in assay [2].

`O=C1NN=C(c2ccccc2)NC1CCCCN1CCN(c2ccccc2)CC1` (stereo not given) [3-Phenyl-5-[4-(4-phenylpiperazin-1-yl)butyl]-4,5-dihydro-1,2,4-triazin-6(1H)-one (11)]: the Ki in assay [1] was found to be 79 nM; in assay [2], 95 nM.

With `O=C1NN=C(c2ccccc2)NC1CCCCN1CCN(c2cccc(Cl)c2Cl)CC1` (stereo not given) [5-{4-[4-(2,3-Dichlorophenyl)piperazin-1-yl]butyl}-3-phenyl-4,5-dihydro-1,2,4-triazin-6(1H)-one (16)], the inhibition constant Ki was found to be 70 nM in assay [1] and 16 nM in assay [2].

Turning to `CSc1ccccc1N1CCN(CCCCC2NC(c3ccccc3)=NNC2=O)CC1` (stereo not given) [5-{4-[4-(2-(Methylthio)phenyl)piperazin-1-yl]butyl}-3-phenyl-4,5-dihydro-1,2,4-triazin-6(1H)-one (13)], the Ki in assay [1] came to 28 nM; in assay [2] it was 17 nM.

Consider `O=C1NN=C(c2ccccc2)NC1CCCCN1CCN(c2ccccc2F)CC1` (stereo not given) [5-{4-[4-(2-Fluorophenyl)piperazin-1-yl]butyl}-3-phenyl-4,5-dihydro-1,2,4-triazin-6(1H)-one (14)], for which the Ki in assay [1] turned out to be 119 nM; in assay [2], 100 nM.

As to `COc1ccccc1N1CCN(CCCCC2NC(c3ccccc3)=NNC2=O)CC1` (stereo not given) [5-{4-[4-(2-Methoxyphenyl)piperazin-1-yl]butyl}-3-phenyl-4,5-dihydro-1,2,4-triazin-6(1H)-one (12)], the results for the inhibition constant (Ki) in assay [1] and in assay [2] were 9 nM and 27 nM, respectively.

Regarding `O=C1NN=C(c2ccccc2)NC1CCCCN1CCN(c2ccc(Cl)cc2)CC1` (stereo not given) [5-{4-[4-(4-Chlorophenyl)piperazin-1-yl]butyl}-3-phenyl-4,5-dihydro-1,2,4-triazin-6(1H)-one (15)], the Ki in assay [1] amounted to 698 nM; in assay [2], 79 nM.
